Test results taken from article PMC6199744, “Development of Chemical Proteomics for the Folateome and Analysis of the Kinetoplastid Folateome” (ACS Infectious Diseases, 2018).

Tests used:
Format in all cases: binding
[1] = molecular target: T1, HeLa cell extract proteins (Homo sapiens, UniProt Q9P035); conditions: captured protein PTPLAD1; HeLa
T1 construct: endogenous in cells; host or cells: HeLa cell extract
T1 sequence (Q9P035 1-362): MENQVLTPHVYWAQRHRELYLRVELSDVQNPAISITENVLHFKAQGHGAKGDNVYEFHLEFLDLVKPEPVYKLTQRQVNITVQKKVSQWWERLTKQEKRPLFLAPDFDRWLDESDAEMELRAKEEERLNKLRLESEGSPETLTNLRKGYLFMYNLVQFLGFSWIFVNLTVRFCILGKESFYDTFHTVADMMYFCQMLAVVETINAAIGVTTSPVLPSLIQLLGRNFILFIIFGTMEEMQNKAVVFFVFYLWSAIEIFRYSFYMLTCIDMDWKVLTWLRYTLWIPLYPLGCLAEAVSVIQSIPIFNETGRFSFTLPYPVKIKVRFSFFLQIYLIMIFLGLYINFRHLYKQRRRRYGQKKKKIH

[2] = molecular target: T2, HeLa cell extract proteins (Homo sapiens, UniProt P53611); conditions: protein RABGGTB; HeLa
T2 construct: endogenous in cells; host or cells: HeLa cell extract
T2 sequence (P53611 1-331): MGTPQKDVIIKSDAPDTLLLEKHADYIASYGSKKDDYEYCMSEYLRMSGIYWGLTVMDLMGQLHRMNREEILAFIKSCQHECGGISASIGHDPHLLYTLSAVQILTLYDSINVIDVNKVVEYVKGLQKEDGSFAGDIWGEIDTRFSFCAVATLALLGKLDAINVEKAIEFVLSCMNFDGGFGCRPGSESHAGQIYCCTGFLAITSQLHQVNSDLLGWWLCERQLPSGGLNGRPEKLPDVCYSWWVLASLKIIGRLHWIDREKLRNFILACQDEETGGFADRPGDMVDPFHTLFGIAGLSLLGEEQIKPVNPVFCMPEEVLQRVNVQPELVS

[3] = molecular target: T3, HeLa cell extract proteins (Homo sapiens, UniProt P31930); conditions: HeLa; protein UQCRC1
T3 construct: endogenous in cells; host or cells: HeLa cell extract
T3 sequence (P31930 35-480): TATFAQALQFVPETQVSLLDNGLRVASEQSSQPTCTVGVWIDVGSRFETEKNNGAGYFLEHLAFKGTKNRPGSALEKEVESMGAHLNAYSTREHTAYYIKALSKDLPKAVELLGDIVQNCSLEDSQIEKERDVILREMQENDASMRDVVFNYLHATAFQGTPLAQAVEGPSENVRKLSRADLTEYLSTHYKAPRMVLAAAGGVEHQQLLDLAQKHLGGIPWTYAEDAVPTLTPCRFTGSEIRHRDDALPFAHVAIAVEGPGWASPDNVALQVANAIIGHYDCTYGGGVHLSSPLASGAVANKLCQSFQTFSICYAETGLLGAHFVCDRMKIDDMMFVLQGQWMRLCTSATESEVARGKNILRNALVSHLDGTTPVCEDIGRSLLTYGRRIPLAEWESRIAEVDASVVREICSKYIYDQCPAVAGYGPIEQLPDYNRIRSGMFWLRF

[4] = molecular target: T4, HeLa cell extract proteins (Homo sapiens, UniProt P61769); conditions: protein B2M; HeLa
T4 construct: endogenous in cells; host or cells: HeLa cell extract
T4 sequence (P61769 21-119): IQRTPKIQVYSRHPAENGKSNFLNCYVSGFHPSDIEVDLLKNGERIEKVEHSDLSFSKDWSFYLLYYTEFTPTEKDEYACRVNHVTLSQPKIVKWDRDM

[5] = molecular target: T5, HeLa cell extract proteins (Homo sapiens, UniProt Q9H583); conditions: HeLa; protein HEATR1
T5 construct: endogenous in cells; host or cells: HeLa cell extract

[6] = molecular target: T6, HeLa cell extract proteins (Homo sapiens, UniProt P42345); conditions: captured protein mTOR; HeLa
T6 construct: endogenous in cells; host or cells: HeLa cell extract

[7] = molecular target: T7, HeLa cell extract proteins (Homo sapiens, UniProt O75874); conditions: HeLa; protein IDH1 (ISOCITRATE DEHYDROGENASE [NADP] CYTOPLASMIC.)
T7 construct: endogenous in cells; host or cells: HeLa cell extract
T7 sequence (O75874 whole entry): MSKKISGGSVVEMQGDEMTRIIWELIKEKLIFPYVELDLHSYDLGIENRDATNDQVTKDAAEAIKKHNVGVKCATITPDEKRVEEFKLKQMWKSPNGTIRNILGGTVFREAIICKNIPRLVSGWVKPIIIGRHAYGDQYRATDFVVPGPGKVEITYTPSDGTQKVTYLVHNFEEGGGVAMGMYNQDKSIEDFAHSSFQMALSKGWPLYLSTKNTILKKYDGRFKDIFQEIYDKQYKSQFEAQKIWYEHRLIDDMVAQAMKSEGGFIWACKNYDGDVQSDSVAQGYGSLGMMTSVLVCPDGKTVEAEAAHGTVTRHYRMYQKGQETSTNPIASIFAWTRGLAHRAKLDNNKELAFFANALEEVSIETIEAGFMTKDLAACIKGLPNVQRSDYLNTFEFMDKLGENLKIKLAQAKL

[8] = molecular target: T8, HeLa cell extract proteins (Homo sapiens, UniProt P02786); conditions: protein TFRC; HeLa
T8 construct: endogenous in cells; host or cells: HeLa cell extract
T8 sequence (P02786 whole entry): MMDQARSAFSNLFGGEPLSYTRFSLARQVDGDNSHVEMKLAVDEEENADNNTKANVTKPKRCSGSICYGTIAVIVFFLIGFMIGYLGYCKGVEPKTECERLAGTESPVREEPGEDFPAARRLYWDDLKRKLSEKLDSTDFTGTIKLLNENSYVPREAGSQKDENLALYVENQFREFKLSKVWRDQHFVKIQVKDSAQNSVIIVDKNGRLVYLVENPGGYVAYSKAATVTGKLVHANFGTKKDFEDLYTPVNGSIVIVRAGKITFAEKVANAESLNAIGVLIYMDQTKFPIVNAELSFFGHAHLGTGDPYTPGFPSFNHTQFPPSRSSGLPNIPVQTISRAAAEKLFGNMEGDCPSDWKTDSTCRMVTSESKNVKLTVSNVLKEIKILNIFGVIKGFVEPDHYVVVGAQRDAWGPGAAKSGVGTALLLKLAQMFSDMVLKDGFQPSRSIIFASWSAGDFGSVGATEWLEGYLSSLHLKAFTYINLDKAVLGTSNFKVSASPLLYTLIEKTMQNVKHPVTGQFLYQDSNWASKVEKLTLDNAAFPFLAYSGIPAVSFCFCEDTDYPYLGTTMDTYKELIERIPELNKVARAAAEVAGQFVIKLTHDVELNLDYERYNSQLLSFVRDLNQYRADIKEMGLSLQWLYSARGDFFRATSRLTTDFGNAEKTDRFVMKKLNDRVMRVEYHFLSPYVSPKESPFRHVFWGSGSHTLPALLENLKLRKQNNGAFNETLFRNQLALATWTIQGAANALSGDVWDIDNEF

[9] = molecular target: T9, HeLa cell extract proteins (Homo sapiens, UniProt P29692); conditions: protein EEF1D; HeLa
T9 construct: endogenous in cells; host or cells: HeLa cell extract
T9 sequence (P29692 1-281): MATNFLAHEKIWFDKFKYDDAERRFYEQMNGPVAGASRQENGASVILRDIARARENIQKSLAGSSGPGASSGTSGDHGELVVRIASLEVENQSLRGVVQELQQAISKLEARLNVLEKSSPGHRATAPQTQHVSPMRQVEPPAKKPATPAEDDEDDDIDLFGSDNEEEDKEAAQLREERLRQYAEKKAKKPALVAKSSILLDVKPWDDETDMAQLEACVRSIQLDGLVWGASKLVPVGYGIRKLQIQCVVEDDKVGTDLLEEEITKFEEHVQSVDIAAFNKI

[10] = molecular target: T10, HeLa cell extract proteins (Homo sapiens, UniProt Q9NQR4); conditions: protein NIT2; HeLa
T10 construct: endogenous in cells; host or cells: HeLa cell extract
T10 sequence (Q9NQR4 1-276): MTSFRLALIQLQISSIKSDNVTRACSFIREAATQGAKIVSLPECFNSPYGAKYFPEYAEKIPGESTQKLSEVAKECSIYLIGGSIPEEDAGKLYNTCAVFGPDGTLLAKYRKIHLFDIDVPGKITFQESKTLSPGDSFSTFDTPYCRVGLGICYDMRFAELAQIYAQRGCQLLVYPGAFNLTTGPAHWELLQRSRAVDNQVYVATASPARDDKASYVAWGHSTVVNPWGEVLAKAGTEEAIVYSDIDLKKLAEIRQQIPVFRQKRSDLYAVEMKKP

[11] = molecular target: T11, HeLa cell extract proteins (Homo sapiens, UniProt P10809); conditions: protein HSPD1; HeLa
T11 construct: endogenous in cells; host or cells: HeLa cell extract
T11 sequence (P10809 27-573): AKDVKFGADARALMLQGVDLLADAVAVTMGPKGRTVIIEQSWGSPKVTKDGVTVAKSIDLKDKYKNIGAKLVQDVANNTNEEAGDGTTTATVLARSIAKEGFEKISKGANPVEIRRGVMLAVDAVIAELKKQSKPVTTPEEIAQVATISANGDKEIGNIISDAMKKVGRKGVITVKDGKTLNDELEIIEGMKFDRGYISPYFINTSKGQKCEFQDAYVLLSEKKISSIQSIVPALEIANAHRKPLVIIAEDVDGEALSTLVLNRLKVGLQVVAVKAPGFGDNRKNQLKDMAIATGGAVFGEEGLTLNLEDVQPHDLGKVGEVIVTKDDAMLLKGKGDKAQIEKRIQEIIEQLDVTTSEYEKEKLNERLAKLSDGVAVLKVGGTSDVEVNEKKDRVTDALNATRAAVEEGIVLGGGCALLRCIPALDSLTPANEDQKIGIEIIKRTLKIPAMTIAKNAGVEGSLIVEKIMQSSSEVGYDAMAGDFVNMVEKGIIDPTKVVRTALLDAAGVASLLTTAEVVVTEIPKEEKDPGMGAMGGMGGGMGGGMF

[12] = molecular target: T12, HeLa cell extract proteins (Homo sapiens, UniProt P51648); conditions: HeLa; protein ALDH3A2
T12 construct: endogenous in cells; host or cells: HeLa cell extract
T12 sequence (P51648 whole entry): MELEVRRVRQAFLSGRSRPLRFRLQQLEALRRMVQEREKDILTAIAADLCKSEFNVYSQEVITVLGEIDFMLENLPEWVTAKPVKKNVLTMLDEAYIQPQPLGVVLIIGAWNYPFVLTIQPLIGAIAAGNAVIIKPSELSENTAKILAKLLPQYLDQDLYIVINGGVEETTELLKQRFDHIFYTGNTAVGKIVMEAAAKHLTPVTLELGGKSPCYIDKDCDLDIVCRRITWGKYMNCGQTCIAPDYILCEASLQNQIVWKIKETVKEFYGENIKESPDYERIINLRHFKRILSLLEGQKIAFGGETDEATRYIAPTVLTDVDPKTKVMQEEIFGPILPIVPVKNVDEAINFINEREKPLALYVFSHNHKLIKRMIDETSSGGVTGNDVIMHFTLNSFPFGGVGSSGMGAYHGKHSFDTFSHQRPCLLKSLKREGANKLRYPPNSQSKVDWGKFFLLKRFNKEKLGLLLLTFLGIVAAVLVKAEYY

[13] = molecular target: T13, HeLa cell extract proteins (Homo sapiens, UniProt Q01628); conditions: captured protein IFITM3; HeLa
T13 construct: endogenous in cells; host or cells: HeLa cell extract
T13 sequence (Q01628 whole entry): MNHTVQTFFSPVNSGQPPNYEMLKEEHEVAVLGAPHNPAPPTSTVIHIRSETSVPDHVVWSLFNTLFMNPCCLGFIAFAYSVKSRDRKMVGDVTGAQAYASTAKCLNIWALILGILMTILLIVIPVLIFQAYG

[14] = molecular target: T14, HeLa cell extract proteins (Homo sapiens, UniProt P13674); conditions: HeLa; protein P4HA1
T14 construct: endogenous in cells; host or cells: HeLa cell extract
T14 sequence (P13674 18-534): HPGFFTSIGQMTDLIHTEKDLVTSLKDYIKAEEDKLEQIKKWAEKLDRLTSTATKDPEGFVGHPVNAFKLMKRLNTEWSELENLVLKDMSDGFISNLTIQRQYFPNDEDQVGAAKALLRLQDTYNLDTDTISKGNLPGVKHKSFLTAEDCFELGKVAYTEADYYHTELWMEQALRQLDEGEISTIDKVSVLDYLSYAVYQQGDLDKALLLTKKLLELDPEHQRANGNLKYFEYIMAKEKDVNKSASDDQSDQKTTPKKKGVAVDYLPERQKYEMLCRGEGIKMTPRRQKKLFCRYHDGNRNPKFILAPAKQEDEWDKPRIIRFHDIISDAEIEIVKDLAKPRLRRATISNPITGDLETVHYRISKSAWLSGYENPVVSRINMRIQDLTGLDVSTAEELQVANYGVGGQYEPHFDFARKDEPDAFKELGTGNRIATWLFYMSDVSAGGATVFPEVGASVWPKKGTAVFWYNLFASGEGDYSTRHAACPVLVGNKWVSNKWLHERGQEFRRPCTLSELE

[15] = molecular target: T15, HeLa cell extract proteins (Homo sapiens, UniProt P26038); conditions: protein MSN; HeLa
T15 construct: endogenous in cells; host or cells: HeLa cell extract
T15 sequence (P26038 whole entry): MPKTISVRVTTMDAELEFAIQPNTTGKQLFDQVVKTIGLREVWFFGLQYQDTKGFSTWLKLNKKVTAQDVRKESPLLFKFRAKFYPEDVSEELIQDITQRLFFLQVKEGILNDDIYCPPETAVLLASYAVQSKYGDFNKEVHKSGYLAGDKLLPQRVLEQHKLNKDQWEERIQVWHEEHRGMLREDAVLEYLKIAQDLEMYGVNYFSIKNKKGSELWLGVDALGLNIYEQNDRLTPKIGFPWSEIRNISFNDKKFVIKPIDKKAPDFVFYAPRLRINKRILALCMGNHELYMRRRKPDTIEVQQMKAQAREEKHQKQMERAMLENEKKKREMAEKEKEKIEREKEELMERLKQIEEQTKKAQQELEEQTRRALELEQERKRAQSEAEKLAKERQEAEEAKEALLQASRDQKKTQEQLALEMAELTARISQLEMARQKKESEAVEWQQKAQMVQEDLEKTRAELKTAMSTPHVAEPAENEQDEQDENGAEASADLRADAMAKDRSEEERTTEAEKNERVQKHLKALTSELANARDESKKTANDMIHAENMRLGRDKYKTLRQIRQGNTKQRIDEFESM

CCCCCCOc1cccc(Cc2cnc(N)nc2N)c1 [compound 2]
fold changes relative to vehicle control [1]: 1.02 | fold changes relative to vehicle control [2]: 1.01 | fold changes relative to vehicle control [3]: 0.92 | fold changes relative to vehicle control [4]: 1.16 | fold changes relative to vehicle control [5]: 1.2 | fold changes relative to vehicle control [6]: 1.1 | fold changes relative to vehicle control [7]: 2.46 fold | fold changes relative to vehicle control [8]: 1.96 | fold changes relative to vehicle control [9]: 1.8 | fold changes relative to vehicle control [10]: 1.12 | fold changes relative to vehicle control [11]: 1.71 | fold changes relative to vehicle control [12]: 1.07 | fold changes relative to vehicle control [13]: 0.65 | fold changes relative to vehicle control [14]: 1.05 | fold changes relative to vehicle control [15]: 1.81
